Test results taken from patent US5175172A, “Method of alleviating AIDS symptoms and compositions therefor” (priority 1988, dated 1992).
“And” between values parts separate entries of the source, which are not always exact repeats. Identical values can stand only once. Like-named read-outs stand apart in the source and are kept apart here.

How the values were obtained:
[1] = Seven month follow-up of THA vs AZT in HIV infected patients (open study): withdrawals for toxicity; format: in vivo, human; conditions: AZT n = 52; THA n = 51
Protocol: (§8) 70 patients (61 males, 11 females) with HIV infection (69 stage IV, 10 stages II and III), received either AZT (46 patients 600-1200 mg./day) or THA (26 patients 150-250 mg/day).
(§9) 13 patients were treated by THA alone, 20 by AZT alone, 26 by AZT then THA and 13 by THA then AZT. Mean duration of treatment was 5.8 months for 53 courses of AZT 5.4 months for 52 courses of THA.

HIV [2] = assay: Seven month follow-up of THA vs AZT in HIV infected patients (open study): clinical results; format: in vivo, human
Protocol: as §8, §9

T4 = test system: T4
Protocol: Seven Month Follow-Up of Tacrine (THA) vs Zidovudine (AZT) in 72 HIV Infected Patients
Comparison of serological and clinical status of HIV infected patients after THA versus AZT treatment in an open study.
[…] (61 males, 11 females) with HIV infection ([…], 10 stages II and III), received either AZT (46 patients 600-1200 mg./day) or THA (26 patients 150-250 mg/day). In cases of intolerance or inefficacy, treatment was discontinued and patients were treated by the other drug.

Agp 24 = assay: Seven month follow-up of THA vs AZT in HIV infected patients (open study): Agp 24; format: in vivo
Source text: Expressed in mean variation (%) in comparison with Do values.

[3] = target: polymerase of Micrococcus Lysodecticus; conditions: read-out: Di50 for the inhibition of the DNA polymerase; specificity test, same concentrations as for reverse transcriptase
Source text: In order to evaluate the specificity of THA, the effects on the reverse transcriptase and on a non-viral DNA polymerase, namely the polymerase of Micrococcus Lysodecticus have been compared at the same concentrations.

CEM cells = test system: CEM cells
Protocol: The CEM lines utilized for the multiplication of the virus, as well as for the inhibition studies, was provided by Service of Francoise Barre-Sinoussi, at the Institute Pasteur. The culture medium is RPMI 1640, supplemented with 10% fetal calf serum, 2% glutamine and 1% antibiotics. The cells are counted and subcultured in a culture flask every 3 or 4 days. In certain cases, the fungicide amphotericin B is added in dosages of 5 μg./ml.
The HIV 1 virus was provided from the same source and grown on CEM cells in the culture described above. The infection is created with a supernatant on the culture at a dose level of 50,000 cpm per 10^6 cells.
Healthy CEM cells were infected with HIV 1 virus at 40,000 cpm per 10^6 cells. After 7 days of infection at 37° C. an equal quantity of healthy cells are added, non-absorbed viruses removed and 5.10^5 cells/ml. and 5 ml. of medium are brought into the presence of THA.
During 5 or 6 days, the cells are counted and the supernatant of the culture is recovered for evaluation of the reverse transcriptase activity, that is to say, to determine the production of HIV 1 virus liberated by the cells. The cells are subculture into fresh medium containing the inhibitor at different concentrations.

[4] = reported by Byrne and Acie, British Med. J. 298 (1989) 845; cited from earlier work
HIV 1 virus = conditions: 5 μM and 10 μM THA
Protocol: The HIV 1 virus was provided from the same source and grown on CEM cells in the culture described above. The infection is created with a supernatant on the culture at a dose level of 50,000 cpm per 10^6 cells. The infection is followed by the evaluation of the activity of the reverse transcriptase which can reach a level of 10^6 cpm/ml. at the end of the culture. […]
35 μl of an incubation medium are made up of a solution of 0.07M magnesium chloride, 0.028M potassium chloride, 0.07M Tris at pH 7.8, 1.4 mM DTT and contain 5 μCi of ^3 H thymidine triphosphate, 2.5 μl of poly A are added to a unit of OD/ml. and 2.5 μl of oligo dT 12-18 to 1 unit of O.D/ml. and finally 10 μl of the plug resuspension from the ultracentrifugation or a control enzymatic preparation. […] The incorporated radioactivity which is as precipitated as an acid insoluble form was washed on Millipore HA 0.45 micron filters and counted by liquid scintillation counters. […]

HIV [5] = conditions: for Antigenemia, evolution (%) in comparison with D0: D0 value 462 pg/ml
Protocol: (§1) Seven Month Follow-Up Study of Tacrine Administration to 26 HIV Infected Patients
(§2) Tacrine was supplied as capsules containing 63.5 mg. Tacrine hydrochloride,monohydrate corresponding to 50 mg. base. An inert excipient (lactose) was added to fill white hard size 3 gelatin capsules.
(§3) For the first 15 days, patients received 2 capsules a day (i.e., 1 capsule at 8 A.M. and 1 at 8 P.M.). After the first 15 days, if nausea had not occurred or had ceased, the dosage was augmented by 1 capsule (i.e., 1 capsule at 8 A.M., 1 at lunch time and 1 at 8 P.M.). After this second period of 15 days, if nausea had not occurred or had ceased, the dosage was augmented by a further 1 capsule, to reach 4 capsules a day (i.e., 1 capsule at 8 A.M., 1 at lunch time, 1 at 4 P.M. and 1 at 8 P.M.).
(§4) D0 --Inclusion Examination--Serological, hematological and clinical determinations. Patients are supplied with capsules of Tacrine for 15 days.
(§5) D15 --First Control after 15 Days Treatment--Serological, hematological and clinical determinations. Patients are supplied with capsules of Tacrine for 15 days.
(§6) D1mth --Second control after 1 month of Treatment--Serological, hematological and clinical determinations. Patients are supplied with capsules of Tacrine for 1 month.
(§7) D'n'mth --Same as D1mth. Following examinations of one month interval each.

T4 Lymphocytes = conditions: D0 value 203/mm^3
Protocol: as §1, §2, §3, §4, §5, §6, §7

[6] = target: T1, reverse transcriptase of the HIV 1 virus (Human immunodeficiency virus type 1 group M subtype B, UniProt P04585); assay: Action on reverse transcriptase of the HIV 1 virus (3H thymidine triphosphate incorporation); format: biochemical
T1 construct: Action on Reverse Transcriptase of the HIV 1 Virus; made in house; host or cells: HIV 1 virus grown on CEM cells; virus pelleted from the culture medium and resuspended in Triton X 100 (viral lysate, not recombinant)
Protocol: For the direct study of the action of the product on the activity of the reverse transcriptase, the virus was concentrated by ultracentrifugation and the plugs of virus removed from the culture medium are resuspended in a solution containing 0.15% Triton X 100, 0.05M Tris at pH 7.8 and 20% glycerol.
These preparations, frozen at -20° C., are active for several months and served for the direct measurement of the products on enzymatic activity.
The THA is diluted as stated above and added to 40 μl of the incubation solution under a volume of 5.5 μl before the addition of 10 μl of the enzymatic preparation. Initial concentrations of the product are thus 10 times more concentrated than the final dilution in the presence of the enzyme. The controls received 5.5 μl of water.

[7] = Hepatotoxicity on administration of Tacrine (prior reports and applicants' studies); format: in vivo; conditions: more recent studies by Applicants
[8] = Seven month follow-up of Tacrine in 26 HIV infected patients: tolerability, side effects and withdrawals; format: in vivo, human
Protocol: Tacrine was supplied as capsules containing 63.5 mg. Tacrine hydrochloride,monohydrate corresponding to 50 mg. base.
D0 --Inclusion Examination--Serological, hematological and clinical determinations.
as §7
Their mean age was 40.3 (range 27-65).
Mean duration of treatment was 6 months.

[9] = during the first month of treatment
[10] = within the first month of treatment

Cc1cn([C@H]2C[C@H](N=[N+]=[N-])[C@@H](CO)O2)c(=O)[nH]c1=O [AZT]
Withdrawals for toxicity, number [1]: 29 | Withdrawals for toxicity, percent [1]: 49% | Deaths, number (HIV [2]; AZT n = 52, THA n = 51): 7 | Deaths, percent (HIV [2]; AZT n = 52, THA n = 51): 12% | Kaposi Emergence, number (HIV [2]; AZT n = 52, THA n = 51): 3 | Kaposi Emergence, percent (HIV [2]; AZT n = 52, THA n = 51): 5% | Opportunistic Infections, number (HIV [2]; AZT n = 52, THA n = 51): 27 | Opportunistic Infections, percent (HIV [2]; AZT n = 52, THA n = 51): 46% | T4 /mm^3, mean variation (%) in comparison with D0 (T4; D1mth): +0.5% | T4 /mm^3, mean variation (%) in comparison with D0 (T4; D2mth): +8.1% | T4 /mm^3, mean variation (%) in comparison with D0 (T4; D3mth): +18.5% | T4 /mm^3, mean variation (%) in comparison with D0 (T4; D4mth): +8.8% | T4 /mm^3, mean variation (%) in comparison with D0 (T4; D5mth): +17.2% | T4 /mm^3, mean variation (%) in comparison with D0 (T4; D6mth): -40% | T4 /mm^3, mean variation (%) in comparison with D0 (T4; D7mth): -40% | Agp 24, mean variation (%) in comparison with D0 (Agp 24; D1mth): -20.6% | Agp 24, mean variation (%) in comparison with D0 (Agp 24; D2mth): +3.4% | Agp 24, mean variation (%) in comparison with D0 (Agp 24; D3mth): -1% | Agp 24, mean variation (%) in comparison with D0 (Agp 24; D4mth): +55.6% | Agp 24, mean variation (%) in comparison with D0 (Agp 24; D5mth): +36.5% | Agp 24, mean variation (%) in comparison with D0 (Agp 24; D6mth): +173% | Agp 24, mean variation (%) in comparison with D0 (Agp 24; D7mth): +142%

Nc1c2c(nc3ccccc13)CCCC2 [Tacrine, 9-Amino-1,2,3,4-tetrahydroacridine]
IC50 [3]: 1000 µM | Withdrawals for toxicity, number [1]: 4 | Withdrawals for toxicity, percent [1]: 8% | Dose dependence of protective effect in CEM cultures (CEM cells): dose-dependent | Proliferation of HIV 1 infected CEM cultures (CEM cells; 1 μM THA): viral infection inhibits the proliferation | Proliferation of HIV 1 infected CEM cultures (CEM cells; 5 μM THA): the cells multiply up to the 16th. day and then decline to be destroyed like the previous cultures right up to the 28th day | Proliferation of HIV 1 infected CEM cultures (CEM cells; 10 μM THA): the cultures continue to proliferate right up to the 28th day | Protection of CEM cultures against lytic effect of HIV virus (CEM cells; at the 5 μM and more particularly at the 10 μM level): protects CEM cultures against the lytic effect of the HIV virus | Deaths, number (HIV [2]; AZT n = 52, THA n = 51): 0 | Kaposi Emergence, number (HIV [2]; AZT n = 52, THA n = 51): 2 | Kaposi Emergence, percent (HIV [2]; AZT n = 52, THA n = 51): 4% | Opportunistic Infections, number (HIV [2]; AZT n = 52, THA n = 51): 3 | Opportunistic Infections, percent (HIV [2]; AZT n = 52, THA n = 51): 6% | Deaths, significance p in comparison with AZT courses (HIV [2]; THA vs AZT courses): < 0.05 | THA versus AZT course of treatment, conclusion (HIV [2]; after 6 months of treatment): decrease in Agp24 levels, mortality and incidences of opportunistic infections | Hepatotoxicity on long term administration [4]: long term administration of Tacrine is not practical because of hepatotoxicity | T4 /mm^3, mean variation (%) in comparison with D0 (T4; D1mth): +20.5% | T4 /mm^3, mean variation (%) in comparison with D0 (T4; D2mth): +31.7% | T4 /mm^3, mean variation (%) in comparison with D0 (T4; D3mth): +55.2% | T4 /mm^3, mean variation (%) in comparison with D0 (T4; D4mth): +74.8% | T4 /mm^3, mean variation (%) in comparison with D0 (T4; D5mth): +91.9% | T4 /mm^3, mean variation (%) in comparison with D0 (T4; D6mth): +52% | T4 /mm^3, mean variation (%) in comparison with D0 (T4; D7mth): +68.3% | Agp 24, mean variation (%) in comparison with D0 (Agp 24; D1mth): -39.4% | Agp 24, mean variation (%) in comparison with D0 (Agp 24; D2mth): -28.3% | Agp 24, mean variation (%) in comparison with D0 (Agp 24; D3mth): -26.2% | Agp 24, mean variation (%) in comparison with D0 (Agp 24; D4mth): -21.5% | Agp 24, mean variation (%) in comparison with D0 (Agp 24; D5mth): -18.7% | Agp 24, mean variation (%) in comparison with D0 (Agp 24; D6mth): -39.5% | Agp 24, mean variation (%) in comparison with D0 (Agp 24; D7mth): -25% | Viral replication with respect to control cultures (HIV 1 virus): viral replication persists although significantly diminished | Antigenemia, evolution (%) in comparison with D0 (HIV [5]; D1mth): -35.3% | Antigenemia, evolution (%) in comparison with D0 (HIV [5]; D2mth): -22.1% | Antigenemia, evolution (%) in comparison with D0 (HIV [5]; D3mth): -24% | Antigenemia, evolution (%) in comparison with D0 (HIV [5]; D4mth): -17% | Antigenemia, evolution (%) in comparison with D0 (HIV [5]; D5mth): -19.4% | Antigenemia, evolution (%) in comparison with D0 (HIV [5]; D6mth): -54% | Antigenemia, evolution (%) in comparison with D0 (HIV [5]; D7mth): -51.3% | Antigenemia, evolution (%) in comparison with D0 (HIV [5]; D15): -38.5% | Opportunistic infections, cases (HIV [5]; in 4 patients): 4 cases | Kaposi sarcoma emergence (HIV [5]; number of cases, 26 patients): 2 | Opportunistic infections: pneumocystosis (HIV [5]; number of cases, 26 patients): 1 | Opportunistic infections: toxoplasmosis (HIV [5]; number of cases, 26 patients): 1 | Opportunistic infections, patients (HIV [5]; seven month follow-up): 4/26 | Mortality (HIV [5]; seven month follow-up, 26 patients): none | T4 Lymphocytes counts, evolution (%) in comparison with D0 (T4 Lymphocytes; D1mth): +16.7% | T4 Lymphocytes counts, evolution (%) in comparison with D0 (T4 Lymphocytes; D2mth): +23.9% | T4 Lymphocytes counts, evolution (%) in comparison with D0 (T4 Lymphocytes; D3mth): +19.5% | T4 Lymphocytes counts, evolution (%) in comparison with D0 (T4 Lymphocytes; D4mth): +28% | T4 Lymphocytes counts, evolution (%) in comparison with D0 (T4 Lymphocytes; D5mth): +26.6% | T4 Lymphocytes counts, evolution (%) in comparison with D0 (T4 Lymphocytes; D6mth): +8.4% | T4 Lymphocytes counts, evolution (%) in comparison with D0 (T4 Lymphocytes; D7mth): +25.6% | T4 Lymphocytes counts, evolution (%) in comparison with D0 (T4 Lymphocytes; D15): +5% | IC50 ([6]; 37° C., 1 hour, read-out: 50% inhibition (Di50) of HIV 1 reverse transcriptase (converted)): 400 µM and 504 µM | Inhibition of HIV 1 reverse transcriptase in combination with HPA 23 ([6]; HPA 23 at 4 μg/ml): synergistic effect with HPA 23 | Inhibiting effect on reverse transcriptase ([6]; conclusions): low | IC50 ([6]; specificity test vs DNA polymerase, same concentrations, read-out: Di50 with respect to the reverse transcriptase): 450 µM | Hepatotoxicity with purified sources of Tacrine [7]: hepatotoxicity can be avoided by utilizing purified sources of Tacrine | Hematotoxicity: decrease of hematological counts ([8]; 26 patients): 0% | Hepatotoxicity: transaminase elevation ([8]; 26 patients): 0% | Nausea, cases ([8]; after the first month): 2 cases | Nausea, incidence ([8]; after the first month): 10% | Nausea, cases [8, 9]: 9 cases | Nausea, incidence [8, 9]: 35% | Withdrawals for side effects (severe nausea or neurologic), cases [8, 10]: 2 cases | Withdrawals for side effects (severe nausea or neurologic), incidence [8, 10]: 8%

O=C(O)P(=O)(O)O [phosphonoformate]
IC50 ([6]; 50% inhibition (Di50) of HIV 1 reverse transcriptase, 37° C., 1 hour): 1 µM
